In patent US20060078921A1, “Biomarkers and expression profiles for toxicology” (priority 2002, published 2006):

What was measured:
liver = details: man, cited from earlier work
[1] = Classification of liver expression profiles with support vector machines; design: species or system Wistar rats; details: compounds not present in the initial training set, individual animals, 5 SVMs
Description: Adult male Wistar rats were dosed in vivo and the resulting expression profile in liver was determined. SVMs were built for the discrimination between 3 different classes of hepatotoxicants, non-toxic substances and controls. The training set consisted of 180 gene expression profiles from individual animals treated with direct acting, cholestatic, steatotic, non-toxic compounds and corresponding vehicle-dosed controls. As a first step the chips were rescaled to a median value of 0 and a standard deviation of 1. Subsequently chips were presented to a linear kernel SVM (for classifier training the SVM software package from William Stafford Noble, Department of Computer Science, Columbia University, New York was used. Procedures for the Recursive Feature Elimination (RFE), automation of the whole training cycles and further data analysis were developed in house, using the PERL language.) Single binary classifiers for each category of chips were obtained by training one group against all others (‘One-vs-All’ training method). Multi-class classification for a given test chip was then carried out by combining the outputs of all binary classifiers. A leave-one-out cross validation procedure was applied to assess the quality of the trained machines with respect to the training data. […]

GADD-45 = test: RT-PCR of GADD-family genes in liver, GADD-45; design: species or system Wistar rats; details: rat liver, in vivo
Source text: (§1) The induction of these genes correlates with the histopathological findings in a time related fashion: While PEG-3 seems to be an early marker, GADD-45 and GADD-143 appear regulated at later time points, when the tissue damage is obvious by conventional endpoints.

GADD-153 = test: RT-PCR of GADD-family genes in liver, GADD-153; design: species or system Wistar rats; details: rat liver, in vivo
Source text: as §1

PEG-3 = test: RT-PCR of GADD-family genes in liver, PEG-3; design: species or system Wistar rats; details: rat liver, in vivo
Source text: as §1

EGR1 = test: EGR-1 induction in rats (RT-PCR); format: in vivo; details: confirmed by RT-PCR
Description: Tolcapone (Tasmar) is a human hepatotoxin with no known toxicity in the rat.
§: The compounds were administered to the experimental animals three times, every 12 Hours. Animals were sacrificed 3 hours after the last administration. Shaded cells represent significant induction (threshold usually 2-fold induction).

AH-Receptor = test: Affymetrix GeneChip liver expression, AH-R; format: in vivo, Wistar rats; details: rat liver, 24 H, control = 1.0
Description: Male Wistar rats (generally 5 animals/dose-group) were purchased from BRL (Füllingsdorf, Switzerland) and housed individually. Treated animals were dosed either orally, intraperitoneally, or intravenously with several doses of test compounds (Table 1). […] Control animals received the same volume of vehicle as placebo. Necropsy was performed 6 or 24 hours after a single administration and liver samples from the left medial lobe were placed immediately in RNALater (Ambion, Tex., USA) for RNA extraction and gene expression analysis. Samples in RNALater were stored at −20° C. until further processing.
For RNA isolation from liver tissue, a portion of tissue of approximately 100 mg was transferred to a tube containing 1.2 ml RNAzol. […] Total RNA was isolated according to the manufacturer's instruction and quantified by measuring the optical density at 280 nm. The quality of RNA was assessed with gel electrophoresis. […]
After hybridization and scanning, the expression level of each gene was calculated by subtracting the fluorescence intensity of the mismatch probes from the match signal (=average difference) using the [sequence] […] Gene expression data were further analyzed with an in-house-developed data analysis tool (RACE-A, Hoffmann-La Roche, Basel, Switzerland). […] Analyzed data were stored in a toxicogenomics database (RACE-R, Hoffmann-La Roche, Basel, Switzerland). […]

[2] = tested on: candidate marker genes (Table 4); test: RT-PCR of candidate marker genes to differentiate toxic and non-toxic 5-HT6 receptor antagonists (FIG. 10); format: in vivo, Wistar rats; details: rat liver, some of the selected genes
Description: The regulation of the mRNA levels of several candidate genes (Table 4) was verified with quantitative RT-PCR. Specific primers for these genes have been designed in order to evaluate the expression with RT-PCR using SybrGreen assay (Table 6). For each performed RT-PCR reaction, the specificity of the assay was evaluated with dissociation curve software (Applied Biosystems), as well as by assessment of the size of the product using either gel electrophoresis or Agilent Bioanalyzer.
In a first step, the induction of the mRNA levels of 9 candidate genes (Table 5 and FIG. 10) was verified with quantitative PCR. […] As an internal control, the house-keeping gene glycernine-aldehyde-phosphate-dehydrogenase (GAPDH) was also analyzed.

Compound	induction of GADD-45 (RT-PCR) (GADD-45)	induction of GADD-153 (RT-PCR) (GADD-153)	induction of PEG-3 (RT-PCR) (PEG-3)	also measured
Nc1c2c(nc3ccccc13)CCCC2 [Tacrine]				incidence of hepatotoxicity in treated patients (liver; Alzheimer's disease patients): 40-50%
CN(C)CCCN1c2ccccc2Sc2ccc(Cl)cc21 [Chlorpromazine]				treated patients who develop jaundice (liver): Up to 1%
O=C(O)CCCCCCNC1c2ccccc2CCc2ccccc21 [amineptine]				SVM classification of compound class from liver expression profiles [1]: steatotic compound
CC(=N)S [Thioacetamide]	induction	induction	induction	
O=[N+]([O-])c1ccc(O)c([N+](=O)[O-])c1 [dinitrophenol, Dinitrophenol]				induction of EGR1 (EGR1; 10 and 30 mg/kg): slight induction
Clc1ccccc1Cl [1,2-dichlorobenzene]	induction	induction	induction	SVM classification of compound class from liver expression profiles [1]: direct acting compound
Cc1ccc(C(=O)c2cc(O)c(O)c([N+](=O)[O-])c2)cc1 [Tolcapone]				induction of EGR1 (EGR1; high dose 300 mg/kg): slight induction
Nc1ccc(S(=O)(=O)c2cc(Br)nc(N3CCCC3)c2)cc1 [Ro66-0074, 4-(2-Bromo-6-pyrrolidin-1-yl-pyridine-4-sulfonyl)-phenylamine]				AH-R Affymetrix (AH-Receptor): 1.0; expression levels of selected marker genes (RT-PCR, FIG. 10) [2]: slight induction
NN [Hydrazine]	induction	induction	induction	
